What follows are compounds tested against T1, Subcomponent "s" of Human Complement Component 1 (h C1s) (Homo sapiens, UniProt P09871) (assay: Inhibition of human C1s (reference enzyme)). Conditions: S-2314 substrate; read-out: Ki h Cls.
T1 construct: purchased Calbiochem
T1 sequence (P09871 438-688 limits assumed): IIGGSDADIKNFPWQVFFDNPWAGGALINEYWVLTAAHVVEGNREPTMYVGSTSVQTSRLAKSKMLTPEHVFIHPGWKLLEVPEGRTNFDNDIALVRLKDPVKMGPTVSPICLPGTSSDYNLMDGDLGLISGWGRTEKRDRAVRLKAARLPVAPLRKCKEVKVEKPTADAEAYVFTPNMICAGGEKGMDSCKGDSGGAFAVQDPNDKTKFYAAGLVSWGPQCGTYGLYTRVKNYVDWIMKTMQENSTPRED
T1 sequence (P09871 16-437 partner limits assumed): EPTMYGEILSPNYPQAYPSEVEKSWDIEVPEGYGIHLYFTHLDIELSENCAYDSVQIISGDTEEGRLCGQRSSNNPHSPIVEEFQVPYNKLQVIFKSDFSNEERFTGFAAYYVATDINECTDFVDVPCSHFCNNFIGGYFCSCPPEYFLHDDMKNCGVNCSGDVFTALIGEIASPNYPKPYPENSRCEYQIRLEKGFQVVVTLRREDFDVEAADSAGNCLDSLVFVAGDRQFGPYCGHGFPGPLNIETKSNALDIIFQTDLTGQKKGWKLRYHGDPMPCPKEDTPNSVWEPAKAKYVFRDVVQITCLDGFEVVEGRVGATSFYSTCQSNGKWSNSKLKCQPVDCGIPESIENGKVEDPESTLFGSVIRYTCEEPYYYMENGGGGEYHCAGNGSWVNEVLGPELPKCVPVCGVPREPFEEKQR
Format: biochemical
Description: (§1) The inhibitory effect against the individual purified enzymes was determined in analogy to a previously disclosed method (Stürzebecher et al., J. Med. Chem., 40, 3091-3099 (1997)).
(§2) The release of p-nitroaniline (p-NA, the chromogenic product of the proteolytic activity), was determined by change in absorbance at 405 nm. The equilibrium rates were used to calculate the inhibitor/enzyme dissociation constant (Ki values) by parameter fitting in accordance with the rate equation for competitive inhibition using GraFit (version 4 from Erithacus). The results are reported as Ki values (nanomolar) in table 7 and are the average of at least three determinations.
(§3) Dissociation constants were calculated as described herein.

Ki [µM] | SMILES
> 50 | NCc1ccc(Cl)cc1CNC(=O)[C@@H]1CCCN1C(=O)[C@@H](CC(=O)O)NS(=O)(=O)Cc1ccccc1 [Compound 2.46]
> 15 | NCc1ccc(Cl)cc1CNC(=O)[C@@H]1C[C@H](N)CN1C(=O)[C@@H](CC(=O)N1CCNCC1)NS(=O)(=O)Cc1ccccc1 [Compound 2.35]

These compounds were tested against T2, Human plasmin (h plasmin) (Homo sapiens, UniProt P00747) (assay: Inhibition of human plasmin (reference enzyme)). Conditions: Chromozym PL substrate.
T2 construct: purchased Calbiochem
T2 sequence (P00747 581-810 limits assumed): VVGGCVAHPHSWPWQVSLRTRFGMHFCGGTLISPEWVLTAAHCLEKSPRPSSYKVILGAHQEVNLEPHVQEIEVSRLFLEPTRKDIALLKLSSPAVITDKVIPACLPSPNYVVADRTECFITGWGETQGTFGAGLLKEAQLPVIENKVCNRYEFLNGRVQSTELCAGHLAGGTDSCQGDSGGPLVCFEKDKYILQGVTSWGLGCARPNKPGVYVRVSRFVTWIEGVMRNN
T2 sequence (P00747 97-580 partner limits assumed): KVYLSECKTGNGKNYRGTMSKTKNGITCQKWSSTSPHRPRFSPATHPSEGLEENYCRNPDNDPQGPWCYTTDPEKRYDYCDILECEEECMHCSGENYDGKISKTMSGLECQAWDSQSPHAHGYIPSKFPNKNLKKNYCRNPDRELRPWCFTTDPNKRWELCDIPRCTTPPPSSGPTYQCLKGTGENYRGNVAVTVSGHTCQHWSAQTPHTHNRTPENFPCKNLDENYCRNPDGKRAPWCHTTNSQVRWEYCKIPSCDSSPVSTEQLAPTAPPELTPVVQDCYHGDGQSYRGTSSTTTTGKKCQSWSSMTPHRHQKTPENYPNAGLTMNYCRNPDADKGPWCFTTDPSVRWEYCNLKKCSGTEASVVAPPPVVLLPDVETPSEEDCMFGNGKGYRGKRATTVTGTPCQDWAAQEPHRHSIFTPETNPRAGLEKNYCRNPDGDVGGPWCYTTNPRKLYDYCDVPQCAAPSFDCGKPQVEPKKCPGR
Format: biochemical
Description: as §1, §2, §3

Ki [µM] | SMILES
> 10 | NCc1ccc(Cl)cc1CNC(=O)[C@@H]1CCCN1C(=O)[C@@H](CC(=O)O)NS(=O)(=O)Cc1ccccc1 [Compound 2.46]
> 3 | NCc1ccc(Cl)cc1CNC(=O)[C@@H]1C[C@H](N)CN1C(=O)[C@@H](CC(=O)N1CCNCC1)NS(=O)(=O)Cc1ccccc1 [Compound 2.35]

The compounds below were run against T3, Human urokinase type plasminogen activator (h u-PA) (Homo sapiens, UniProt P00749) (assay: Inhibition of human urokinase type plasminogen activator (reference enzyme)). Conditions: H-Glu-Gly-Arg-pNA substrate.
T3 construct: purchased MEDAC GmbH Urokinase HS medac
Format: biochemical
Description: as §1, §2, §3

Ki [µM] | SMILES
> 50 | NCc1ccc(Cl)cc1CNC(=O)[C@@H]1CCCN1C(=O)[C@@H](CC(=O)O)NS(=O)(=O)Cc1ccccc1 [Compound 2.46]
> 20 | NCc1ccc(Cl)cc1CNC(=O)[C@@H]1C[C@H](N)CN1C(=O)[C@@H](CC(=O)N1CCNCC1)NS(=O)(=O)Cc1ccccc1 [Compound 2.35]

The compounds below were run against T4, Human tissue-type plasminogen activator (h t-PA) (Homo sapiens, UniProt P00750) (assay: Inhibition of human tissue-type plasminogen activator (reference enzyme)). Conditions: Pefachrome tPA substrate; read-out: Ki h t-PA.
T4 construct: purchased Boehringer Ingelheim Actilyse
T4 sequence (P00750 36-562): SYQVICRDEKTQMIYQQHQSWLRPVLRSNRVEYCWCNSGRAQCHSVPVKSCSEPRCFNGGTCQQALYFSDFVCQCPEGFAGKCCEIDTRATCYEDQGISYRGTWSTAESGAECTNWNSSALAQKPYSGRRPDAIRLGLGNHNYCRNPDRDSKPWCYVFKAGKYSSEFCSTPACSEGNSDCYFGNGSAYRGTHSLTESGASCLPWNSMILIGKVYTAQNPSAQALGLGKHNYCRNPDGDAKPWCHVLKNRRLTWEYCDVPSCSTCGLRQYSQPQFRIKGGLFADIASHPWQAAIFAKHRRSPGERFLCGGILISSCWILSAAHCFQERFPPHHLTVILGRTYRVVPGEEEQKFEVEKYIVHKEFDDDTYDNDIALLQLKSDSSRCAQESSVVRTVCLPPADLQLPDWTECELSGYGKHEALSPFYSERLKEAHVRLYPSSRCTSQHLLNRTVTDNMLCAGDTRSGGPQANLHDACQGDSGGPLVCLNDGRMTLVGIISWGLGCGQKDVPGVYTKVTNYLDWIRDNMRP
Format: biochemical
Description: The equilibrium rates were used to calculate the inhibitor/enzyme dissociation constant (Ki values) by parameter fitting in accordance with the rate equation for competitive inhibition using GraFit (version 4 from Erithacus).
as §3

Ki [µM] | SMILES
> 50 | NCc1ccc(Cl)cc1CNC(=O)[C@@H]1CCCN1C(=O)[C@@H](CC(=O)O)NS(=O)(=O)Cc1ccccc1 [Compound 2.46]
1 | NCc1ccc(Cl)cc1CNC(=O)[C@@H]1C[C@H](N)CN1C(=O)[C@@H](CC(=O)N1CCNCC1)NS(=O)(=O)Cc1ccccc1 [Compound 2.35]

These compounds were tested against T5, Subcomponent "r" of Human Complement Component 1 (h C1r) (Homo sapiens, UniProt P00736) (assay: Inhibition of human C1r (reference enzyme)). Conditions: S-2314 substrate; read-out: Ki h Clr.
T5 construct: purchased Calbiochem
T5 sequence (P00736 464-705 limits assumed): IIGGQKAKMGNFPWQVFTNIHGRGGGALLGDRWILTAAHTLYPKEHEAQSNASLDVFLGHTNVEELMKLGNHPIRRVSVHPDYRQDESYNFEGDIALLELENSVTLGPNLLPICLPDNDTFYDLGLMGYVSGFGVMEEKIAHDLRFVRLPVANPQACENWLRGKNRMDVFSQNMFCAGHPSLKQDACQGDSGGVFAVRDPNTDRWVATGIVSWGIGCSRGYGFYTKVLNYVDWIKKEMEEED
T5 sequence (P00736 18-463 partner limits assumed): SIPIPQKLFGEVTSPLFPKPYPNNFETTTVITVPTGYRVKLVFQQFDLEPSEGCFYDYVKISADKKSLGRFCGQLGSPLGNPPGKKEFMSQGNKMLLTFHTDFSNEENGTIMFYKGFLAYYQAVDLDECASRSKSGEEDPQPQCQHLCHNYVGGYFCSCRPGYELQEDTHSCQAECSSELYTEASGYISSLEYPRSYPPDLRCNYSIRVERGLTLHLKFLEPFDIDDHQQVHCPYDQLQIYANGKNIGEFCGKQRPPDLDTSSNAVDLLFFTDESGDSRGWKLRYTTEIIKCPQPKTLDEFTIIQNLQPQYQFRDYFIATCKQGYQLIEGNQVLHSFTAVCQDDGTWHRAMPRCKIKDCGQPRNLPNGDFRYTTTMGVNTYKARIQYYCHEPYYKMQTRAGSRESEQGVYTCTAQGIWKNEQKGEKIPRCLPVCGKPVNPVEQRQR
Format: biochemical
Description: as §1, §2, §3

Ki [µM] | SMILES
> 100 | NCc1ccc(Cl)cc1CNC(=O)[C@@H]1CCCN1C(=O)[C@@H](CC(=O)O)NS(=O)(=O)Cc1ccccc1 [Compound 2.46]
> 100 | NCc1ccc(Cl)cc1CNC(=O)[C@@H]1C[C@H](N)CN1C(=O)[C@@H](CC(=O)N1CCNCC1)NS(=O)(=O)Cc1ccccc1 [Compound 2.35]

Each compound was assayed against T6, human factor IIa (human alpha-thrombin) (Homo sapiens, UniProt P00734) (assay: Inhibition constants for human factor IIa, chromogenic substrate assay). Conditions: 25° C., Pefachrome tPA substrate, average of at least three determinations; read-out: Ki h FIIa.
T6 construct: human alpha-thrombin from Enzyme Research Laboratories; purchased Enzyme Research Laboratories
Format: biochemical
Description: as §1
(§4) 200 μL of TBS (0.05 M trishydroxymethylaminomethane; 0.154 M NaCl, 2% ethanol, pH 8.0)
as §2

Ki [µM] | SMILES
0.0122 | NCc1ccc(Cl)cc1CNC(=O)[C@@H]1CCCN1C(=O)[C@@H](CC(=O)O)NS(=O)(=O)Cc1ccccc1 [Compound 2.46]
0.0044 | NCc1ccc(Cl)cc1CNC(=O)[C@@H]1C[C@H](N)CN1C(=O)[C@@H](CC(=O)N1CCNCC1)NS(=O)(=O)Cc1ccccc1 [Compound 2.35]

What follows are compounds tested against T7, Human Activated Protein C (h aPC) (Homo sapiens, UniProt P04070) (assay: Inhibition of human activated protein C (reference enzyme)). Conditions: Pefachrome PCa substrate.
T7 construct: purchased Enzyme Research Laboratories
T7 sequence (P04070 212-450 limits assumed): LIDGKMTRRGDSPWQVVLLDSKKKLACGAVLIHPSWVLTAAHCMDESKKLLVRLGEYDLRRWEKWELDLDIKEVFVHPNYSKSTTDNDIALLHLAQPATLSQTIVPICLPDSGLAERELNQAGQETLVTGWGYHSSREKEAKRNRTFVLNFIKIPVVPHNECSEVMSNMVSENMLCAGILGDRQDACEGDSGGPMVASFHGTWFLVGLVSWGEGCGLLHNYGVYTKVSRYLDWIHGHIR
T7 sequence (P04070 43-197 partner limits assumed): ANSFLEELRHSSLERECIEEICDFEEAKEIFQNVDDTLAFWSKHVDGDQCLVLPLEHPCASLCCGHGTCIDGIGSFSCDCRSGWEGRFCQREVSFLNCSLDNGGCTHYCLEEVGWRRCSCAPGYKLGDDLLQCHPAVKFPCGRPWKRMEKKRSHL
Format: biochemical
Description: as §1, §2, §3

Ki [µM] | SMILES
> 40 | NCc1ccc(Cl)cc1CNC(=O)[C@@H]1CCCN1C(=O)[C@@H](CC(=O)O)NS(=O)(=O)Cc1ccccc1 [Compound 2.46]
> 100 | NCc1ccc(Cl)cc1CNC(=O)[C@@H]1C[C@H](N)CN1C(=O)[C@@H](CC(=O)N1CCNCC1)NS(=O)(=O)Cc1ccccc1 [Compound 2.35]

These compounds were tested against T8, Human plasma kallikrein (h PK) (Homo sapiens, UniProt P03952) (assay: Inhibition of human plasma kallikrein (reference enzyme)). Conditions: S2302 substrate.
T8 construct: purchased Enzyme Research Laboratories
T8 sequence (P03952 391-638 limits assumed): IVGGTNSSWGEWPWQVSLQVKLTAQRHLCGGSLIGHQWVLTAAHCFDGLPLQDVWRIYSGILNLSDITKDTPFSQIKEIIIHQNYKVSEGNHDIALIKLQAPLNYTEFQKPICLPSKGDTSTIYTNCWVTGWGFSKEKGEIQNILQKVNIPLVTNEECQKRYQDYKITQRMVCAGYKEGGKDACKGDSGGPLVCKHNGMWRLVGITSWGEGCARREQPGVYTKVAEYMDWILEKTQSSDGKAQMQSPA
T8 sequence (P03952 20-390 partner limits assumed): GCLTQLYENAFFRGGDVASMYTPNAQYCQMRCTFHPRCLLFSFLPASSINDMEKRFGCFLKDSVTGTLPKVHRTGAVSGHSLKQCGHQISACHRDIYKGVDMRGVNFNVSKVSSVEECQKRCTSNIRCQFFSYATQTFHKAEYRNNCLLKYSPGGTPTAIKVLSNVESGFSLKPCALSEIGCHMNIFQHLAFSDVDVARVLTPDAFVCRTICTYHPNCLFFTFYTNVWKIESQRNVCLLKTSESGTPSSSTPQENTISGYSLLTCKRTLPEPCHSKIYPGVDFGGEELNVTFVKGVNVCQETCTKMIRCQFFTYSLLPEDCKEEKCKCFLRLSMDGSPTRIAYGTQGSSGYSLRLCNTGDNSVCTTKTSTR
Format: biochemical
Description: as §1, §2, §3

Ki [µM] | SMILES
> 50 | NCc1ccc(Cl)cc1CNC(=O)[C@@H]1CCCN1C(=O)[C@@H](CC(=O)O)NS(=O)(=O)Cc1ccccc1 [Compound 2.46]
0.351 | NCc1ccc(Cl)cc1CNC(=O)[C@@H]1C[C@H](N)CN1C(=O)[C@@H](CC(=O)N1CCNCC1)NS(=O)(=O)Cc1ccccc1 [Compound 2.35]

Each compound was assayed against T9, Human urinary kallikrein (h uKK) (Homo sapiens, UniProt P06870) (assay: Inhibition of human urinary kallikrein (reference enzyme)). Conditions: S-2266 substrate.
T9 construct: purchased Lee Biosolutions
T9 sequence (P06870 25-262): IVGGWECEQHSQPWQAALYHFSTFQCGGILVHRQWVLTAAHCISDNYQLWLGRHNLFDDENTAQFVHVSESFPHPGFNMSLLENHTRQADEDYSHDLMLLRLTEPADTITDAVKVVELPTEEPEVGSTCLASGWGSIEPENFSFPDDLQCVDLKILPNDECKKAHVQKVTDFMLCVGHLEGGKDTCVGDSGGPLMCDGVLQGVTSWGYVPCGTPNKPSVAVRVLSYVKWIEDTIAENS
Format: biochemical
Description: as §1, §2, §3

Ki [µM] | SMILES
> 20 | NCc1ccc(Cl)cc1CNC(=O)[C@@H]1CCCN1C(=O)[C@@H](CC(=O)O)NS(=O)(=O)Cc1ccccc1 [Compound 2.46]
> 50 | NCc1ccc(Cl)cc1CNC(=O)[C@@H]1C[C@H](N)CN1C(=O)[C@@H](CC(=O)N1CCNCC1)NS(=O)(=O)Cc1ccccc1 [Compound 2.35]

The compounds below were run against T10, human Factor Xa (Homo sapiens, UniProt P00742) (assay: Inhibition constants for human factor Xa, chromogenic substrate assay). Conditions: 25° C., Pefachrome FXa substrate, average of at least three determinations; read-out: Ki h FXa.
T10 construct: human Factor Xa from Enzyme Research Laboratories; purchased Enzyme Research Laboratories
T10 sequence (P00742 235-488 limits assumed): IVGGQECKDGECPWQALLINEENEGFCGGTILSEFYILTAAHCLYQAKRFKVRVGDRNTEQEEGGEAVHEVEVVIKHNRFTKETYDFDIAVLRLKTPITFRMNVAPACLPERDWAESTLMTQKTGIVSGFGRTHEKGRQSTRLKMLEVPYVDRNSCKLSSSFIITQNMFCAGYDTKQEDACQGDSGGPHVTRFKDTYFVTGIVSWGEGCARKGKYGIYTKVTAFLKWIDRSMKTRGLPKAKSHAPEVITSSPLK
T10 sequence (P00742 41-179 partner limits assumed): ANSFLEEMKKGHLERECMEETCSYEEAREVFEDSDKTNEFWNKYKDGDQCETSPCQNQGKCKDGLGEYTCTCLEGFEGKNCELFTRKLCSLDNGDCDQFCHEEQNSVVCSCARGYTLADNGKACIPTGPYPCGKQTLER
Format: biochemical
Description: as §1, §4, §2

Ki [µM] | SMILES
1.32 | NCc1ccc(Cl)cc1CNC(=O)[C@@H]1CCCN1C(=O)[C@@H](CC(=O)O)NS(=O)(=O)Cc1ccccc1 [Compound 2.46]
0.00079 | NCc1ccc(Cl)cc1CNC(=O)[C@@H]1C[C@H](N)CN1C(=O)[C@@H](CC(=O)N1CCNCC1)NS(=O)(=O)Cc1ccccc1 [Compound 2.35]
